Measurements as given in PMC10634346 (Cancer Research Communications, 2023).

Columns and labels:
[1] = tested on: SU-DHL-4 and SU-DHL-10 cell lines; assay: RNA-seq differential gene expression in DLBCL cell lines; type: cell-based, human
Description: Evaluation of the pharmacodynamic extent and duration of CDK9 inhibition were performed in vitro using the human DLBCL cell lines SU-DHL-4 and SU-DHL-10, harboring MYC amplification and MYC overexpression with P57T mutation, respectively. Cells were seeded 18 hours prior to treatment for 4 hours with one of three CDK9 inhibitors, enitociclib (0.25 and1 µmol/L), atuveciclib (1 µmol/L) or KB-0742 (1 µmol/L), cells were washed, and incubation continued until 48 hours posttreatment. Samples were collected before treatment (−4), immediately after treatment (0), and at 1, 2, 4, 8, 12, 16, 24, and 48 hours after washout for RNA sequencing (RNA-seq), qPCR, and Western blotting analyses. Total RNA was extracted from blood of patients and cell lines using RNeasy Plus Mini Kit (QIAGEN, #74136) and cDNA prepared with the Maxima First Strand cDNA Synthesis Kit for RT-PCR (Thermo Fisher Scientific, K1642) according to manufacturer's instructions. The integrity of purified total RNA was evaluated using an Agilent 2100 Bioanalyzer system and RNA 6000 Nano Kit (Agilent, #5067-1511). Differential gene expression analysis was performed (Fios Genomics) from RNA-seq data (Discovery Life Sciences). MYC and MCL1 mRNA levels were measured by qPCR in vitro and in vivo, using a Taqman qPCR system (Thermo Fisher Scientific), TaqMan Fast Universal PCR Master Mix (2X) no AmpErase (#4352042) and TaqMan probes for MYC (Hs00153408_m1) and MCL1 (Hs03043899_m1). RNA-seq data were analyzed using DESeq2 ([35]). RNA-seq data generated from the analysis of two cell lines treated with the three CDK9 inhibitors was analyzed to investigate the differences in gene expression levels between various posttreatment timepoints and the pretreatment samples. Quality control assessment and exploratory data analysis by principal component analysis (PCA) were done on raw counts and on normalized count data. Normalization of RNA-seq count data was done using trimmed mean of M-values normalization and transformed with voom, resulting in log2 counts per million with associated precision weights. […] Significance values (Padj) were adjusted for multiple testing, by controlling the FDR using the Benjamini–Hochberg procedure. […] RNA-seq data generated from blood samples taken from patients before and after their first dose (C1D1) or after multiple doses, before and after their third dose (C1D15) were analyzed and normalized using the same pipeline as cell lines for comparisons.

MCL1 mRNA in whole blood = MCL1 mRNA in whole blood of patients (RNA-seq, PK/PD modeling); type: in vivo, human; conditions: for Downregulation of MCL1 mRNA: C1D15
Description: Total RNA was extracted from blood of patients and cell lines using RNeasy Plus Mini Kit (QIAGEN, #74136) and cDNA prepared with the Maxima First Strand cDNA Synthesis Kit for RT-PCR (Thermo Fisher Scientific, K1642) according to manufacturer's instructions. The integrity of purified total RNA was evaluated using an Agilent 2100 Bioanalyzer system and RNA 6000 Nano Kit (Agilent, #5067-1511). Differential gene expression analysis was performed (Fios Genomics) from RNA-seq data (Discovery Life Sciences). MYC and MCL1 mRNA levels were measured by qPCR in vitro and in vivo, using a Taqman qPCR system (Thermo Fisher Scientific), TaqMan Fast Universal PCR Master Mix (2X) no AmpErase (#4352042) and TaqMan probes for MYC (Hs00153408_m1) and MCL1 (Hs03043899_m1). RNA-seq data were analyzed using DESeq2 ([35]).
Fifteen patients with refractory or relapsed DH-DLBCL or other MYC+ NHL were treated with enitociclib (30 mg, 21-day cycle, once weekly x3) as a 30-minute intravenous infusion on study days 1, 8, and 15 (NCT02635672). Longitudinal gene expression levels were analyzed by RNA-seq, and enitociclib plasma concentrations were measured using LC/MS-MS. The clinical study protocol was approved by the Institutional Review Board of participating institutions and complied with the Declaration of Helsinki, current Good Clinical Practice guidelines, and local laws and regulations. Written informed consent was provided by all participants prior to the initiation of any study-specific procedure.
All pharmacokinetic parameters were calculated by noncompartmental methods as described previously ([36]) using WinNonlin v5.3 (Certara LP). Pharmacokinetic/pharmacodynamic modeling was performed using SAAM II v2.3.2 (The Epsilon Group). Pooled pharmacokinetic data from all patients [n = 15 for single dose, cycle 1 day 1 (C1D1) and n = 11 for multiple doses, cycle 1 day 15 (C1D15)] were characterized using a one-compartment model with intravenous dosing. Subsequently, the pharmacokinetic/pharmacodynamic relationship of enitociclib plasma concentrations to MCL1 and MYC mRNA change was characterized using an indirect response model ([37]) on pooled biomarker data where enitociclib concentrations inhibit the formation of MCL1 or MYC mRNA as described by the following equation: […]
PD is defined as MCL1 or MYC mRNA expression level as a percentage from baseline, t (h) is the time, kin (1/h) is the formation rate of MCL1 or MYC, IC50 (µg/L) is the enitociclib concentration where there is 50% inhibition of PD, kout (h^−1) is the rate constant describing the loss of PD, and n is the hill coefficient. At homeostasis, kin = kout (PD); therefore, kout was replaced by kin/(PD)initial where (PD)initial is equal to 100%. Estimates of pharmacokinetic and pharmacodynamic parameters from pharmacokinetic/pharmacodynamic modeling of pooled data are presented as the estimate followed by CV in parentheses.
RNA-seq data generated from the analysis of two cell lines treated with the three CDK9 inhibitors was analyzed to investigate the differences in gene expression levels between various posttreatment timepoints and the pretreatment samples. Quality control assessment and exploratory data analysis by principal component analysis (PCA) were done on raw counts and on normalized count data. Normalization of RNA-seq count data was done using trimmed mean of M-values normalization and transformed with voom, resulting in log2 counts per million with associated precision weights. […] Significance values (Padj) were adjusted for multiple testing, by controlling the FDR using the Benjamini–Hochberg procedure. […] RNA-seq data generated from blood samples taken from patients before and after their first dose (C1D1) or after multiple doses, before and after their third dose (C1D15) were analyzed and normalized using the same pipeline as cell lines for comparisons.

## COc1cc(F)ccc1-c1cc(Nc2cc(CS(C)(=N)=O)ccn2)ncc1F (stereo not drawn) [enitociclib]
[1]; 250 nmol/L, 4 hours, Padj 1.14 e-12
  PHF23 fold change: −12.236
[1]; 250 nmol/L, 4 hours, Padj 7.76 e-8
  TP53RK fold change: −9.992
[1]; 1 µmol/L, 4 hours
  BTG1 and PIM3 by RNA-seq (in words): statistically significant downregulation
  PHF23 and TP53RK by RNA-seq (in words): statistically significantly downregulated
[1]; 4 hours treatment, in vitro
  MCL1 mRNA by RNA-seq (in words): downregulation is observed but not statistically significant
  MYC mRNA by RNA-seq (in words): statistically significantly downregulated
  ZPF36 by RNA-seq (in words): significantly downmodulated
[1]; MYC+ DLBCL cell lines, clinically relevant conditions
  MYC extent of downregulation, fold change: −17.108 fold change
MCL1 mRNA in whole blood; 30 mg dose
  maximal downregulation of MCL1 mRNA level in blood of patients postdose: 55.5%
MCL1 mRNA in whole blood; C1D1, 30 mg, other MYC+ NHL, range 22.5%–48.2%
  maximal extent of MCL1 mRNA downregulation: 44.54%
MCL1 mRNA in whole blood; C1D1, 30 mg, patient with the transformed follicular lymphoma
  time of maximal MCL1 mRNA inhibition: 8 hours postdose
MCL1 mRNA in whole blood; C1D1, 30 mg, patients with DH-DLBCL, range 31%–52.4%
  maximal extent of MCL1 mRNA downregulation: 49.28%
MCL1 mRNA in whole blood; DH-DLBCL, range 30%–55.5%
  Downregulation of MCL1 mRNA: 45.81%
MCL1 mRNA in whole blood; other MYC+ NHL, range 0%–43.1%
  Downregulation of MCL1 mRNA: 18.27%
MCL1 mRNA in whole blood; Homo sapiens, PK/PD indirect response model, pooled patient blood data, read-out: model estimated unbound IC50 for MCL1 mRNA
  IC50: 61.2 to 69.1 nM
